≈ marks a conversion by molar mass, not a printed value. Non-standard residues stand in square brackets, D forms with d. Residues, ends and D or L forms follow the SMILES beside them. *: point of attachment. X1 = OCCNC[C@H](Cc1ccccc1)N*; Aib = CC(C)(N)C(=O)O
Tests used:
Type in all cases: functional
Staphylococcus aureus [1] = assay: Antimicrobial activity against wild type Staphylococcus aureus by broth dilution method
Staphylococcus aureus [2] = assay: Antimicrobial activity against methicillin-resistant Staphylococcus aureus by broth dilution method
Enterococcus faecium = assay: Antimicrobial activity against vancomycin-resistant Enterococcus faecium by broth dilution method
Escherichia coli [3] = assay: Antimicrobial activity against membrane permeability mutant Escherichia coli imp by broth dilution method
Escherichia coli [4] = assay: Antimicrobial activity against wild type Escherichia coli by broth dilution method
Candida albicans = assay: Antimicrobial activity against Candida albicans by broth dilution method

SMILES | MIC (Staphylococcus aureus [1]) [µg/mL] | MIC (Staphylococcus aureus [2]) [µg/mL] | MIC (Enterococcus faecium) [µg/mL] | MIC (Escherichia coli [3]) [µg/mL] | MIC (Escherichia coli [4]) [µg/mL] | MIC (Candida albicans) [µg/mL]
CC(=O)NC(C)(C)C(=O)N1CCC[C@H]1C(=O)NC(C)(C)C(=O)N[C@@H](C)C(=O)NC(C)(C)C(=O)N[C@@H](C)C(=O)N[C@@H](CCC(N)=O)C(=O)NC(C)(C)C(=O)N[C@H](C(=O)NC(C)(C)C(=O)NCC(=O)N[C@@H](CC(C)C)C(=O)NC(C)(C)C(=O)N1CCC[C@H]1C(=O)N[C@H](C(=O)NC(C)(C)C(=O)NC(C)(C)C(=O)N[C@@H](CCC(=O)O)C(=O)N[C@@H](CCC(N)=O)C(=O)N[C@H](CNCCO)Cc1ccccc1)C(C)C)C(C)C [septocylindrin A] (Ac-[Aib]P[Aib]A[Aib]AQ[Aib]V[Aib]GL[Aib]PV[Aib][Aib]EQ-X1) | 32 (≈ 15.9 µM) | 128 (≈ 63.8 µM) | 16 (≈ 7.97 µM) | 32 (≈ 15.9 µM) | > 128 | 32 (≈ 15.9 µM)
CC(=O)NC(C)(C)C(=O)N1CCC[C@H]1C(=O)NC(C)(C)C(=O)N[C@@H](C)C(=O)NC(C)(C)C(=O)N[C@@H](C)C(=O)N[C@@H](CCC(N)=O)C(=O)NC(C)(C)C(=O)N[C@H](C(=O)NC(C)(C)C(=O)NCC(=O)N[C@@H](CC(C)C)C(=O)NC(C)(C)C(=O)N1CCC[C@H]1C(=O)N[C@H](C(=O)NC(C)(C)C(=O)NC(C)(C)C(=O)N[C@@H](CCC(N)=O)C(=O)N[C@@H](CCC(N)=O)C(=O)N[C@H](CNCCO)Cc1ccccc1)C(C)C)C(C)C [septocylindrin B] (Ac-[Aib]P[Aib]A[Aib]AQ[Aib]V[Aib]GL[Aib]PV[Aib][Aib]QQ-X1) | 8 (≈ 3.99 µM) | 16 (≈ 7.97 µM) | 8 (≈ 3.99 µM) | 8 (≈ 3.99 µM) | > 128 | 16 (≈ 7.97 µM)
